Measured values as given in patent US6653479B1, “Crystalline form of 6-hydroxy-3-(4-[2-(piperidin-1-yl)ethoxy]phenoxy)-2-(4-methoxyphenyl)benzo[b] thiophene hydrochloride” (Eli Lilly and Company, priority 1999, dated 2003).

How the values were obtained:
Format in all cases: physicochemical
[1] = Hygroscopicity (moisture sorption isotherms, VTI method)
Protocol: Hygroscopicicity studies were performed on F-I and F-III. Upon initial exposure of the samples to approximately 5% RH, there was an immediate weight gain of 1.5% and 1.7% moisture for F-I and F-III, respectively, equivalent to approximately 0.5 mole of water. Both forms show a continuous sorption of moisture through the entire humidity range, which is likely due to incorporation of water molecules in the lattices.
The moisture sorption profiles for F-I and F-III reveal that these forms are essentially non-stoichiometric hydrates. At ambient relative humidity (about 50% RH), F-I contains approximately 1.7% water, corresponding to 0.5 moles of water, while F-III has sorbed about 3.0% water which corresponds to about 0.85 moles of water. The bulk forms of F-I and F-III rapidly equilibrate with the atmosphere, so that the water content observed by analytical techniques is a reflection of the relative humidity at the time of data collection. Lot-to-lot differences observed in the DSC data likely results from the samples being hydrated to different extents due to different ambient storage conditions.
Hygroscopicity measurements were made for F-I and F-III using the VTI method as follows. Each sample was dried under vacuum at 60° C. until no further weight loss was detected, at which time the sample chamber was brought to 0% relative humidity. Moisture sorption isotherms were obtained at 25° C. using a VTI vacuum moisture balance with the following conditions: sample size 10-15 mg, adsorption/desorption range 0-95% relative humidity, step interval 5%, sample interval 10 minutes.

[2] = Stability at different relative humidities (XRD of stored samples); settings: entire relative humidity range
Protocol: XRD patterns were obtained for samples of F-I and F-III stored at different relative humidities (0, 22, 50, and 80%). There is a gradual shifting of the initial (0% RH) F-III peaks at about 13.8, 17.6, 18.0, 20.5 and 24.0° in 2θ as well as slight shifting of less intense peaks, as the relative humidity is increased. These observed changes in the XRD patterns of F-III indicate that the unit cell dimensions are changing, presumably to accommodate weakly held water molecules as the relative humidity is increased.
A similar experiment was carried out on F-I to determine whether varying the relative humidity would have a similar effect on its lattice (0, 25, 52, 73 and 95% RH). Very slight shifting of the 0% RH peaks at about 7.7, 18.3, 18.5, 20.5, 20.8° in 2θ is observed as the relative humidity is increased. […] The shifting of peaks in the XRD patterns of F-I is less dramatic than the peak shifts observed as F-III was exposed to different relative humidities.
XRD patterns were obtained on a Siemens D5000 X-ray powder diffractometer, equipped with a CuKα source (λ=1.54056 Å) and a Kevex solid-state detector, operating at 50 kV and 40 mA. Each sample was scanned between 4° and 35° in 2θ. Samples were allowed to equilibrate for at least 30 minutes at the desired temperature and/or relative humidity before data collection.

[3] = Comparison of aqueous solubility and dissolution rate; settings: F-I compared with F-III
[4] = Stability at ambient temperature relative to arzoxifene of '474; settings: relative to the arzoxifene produced by the procedures taught in '474
[5] = ambient relative humidity (about 50% RH)

water content [1, 5]: approximately 1.7%
water content in moles of water [1, 5]: 0.5 mol
water equivalent of the weight gain ([1]; approximately 5% RH): approximately 0.5 mole
immediate weight gain of moisture ([1]; initial exposure to approximately 5% RH, 25° C.): 1.5%
aqueous solubilities [3]: comparable
dissolution rates [3]: comparable
stability at ambient temperature [4]: more stable
SMILES: COc1ccc(-c2sc3cc(O)ccc3c2Oc2ccc(OCCN3CCCCC3)cc2)cc1.Cl [F-I, 6-hydroxy-3-(4-[2-(piperidin-1-yl)ethoxy]phenoxy)-2-(4-methoxyphenyl)benzo[b]thiophene hydrochloride]
stability over relative humidity range [2]: stable over the entire relative humidity range
